According to US20260297070A1, “CYCLIC [COMPOUND LEFT OUT] WRN INHIBITORS” (Nimbus Wadjet, Inc., priority 2023, published 2026):

Each molecule was assayed against T1, human Werner helicase (WRN-BV08, Uniprot Q14191, amino acids 517-1235 with L1074F point mutation) (Homo sapiens, UniProt Q14191, L1074F) (assay: WRN (BV08) ADP-Glo Assay). Details: 0.15 nM WRN, 5 μM ATP, 0.1 nM DNA duplex, 15 min preincubation, 60 min at 25° C., pH 7.5, 1% DMSO; read-out: ADP-Glo_hWRN_IC50.
T1 construct: Uniprot Q14191, amino acids 517-1235 with L1074F point mutation; TEV-cleavable 8×His (C, cleaved yes); made in house; host or cells: Sf9 insect cells (baculovirus)
T1 sequence (Q14191 with tags, fused parts or gaps L1074F limits assumed): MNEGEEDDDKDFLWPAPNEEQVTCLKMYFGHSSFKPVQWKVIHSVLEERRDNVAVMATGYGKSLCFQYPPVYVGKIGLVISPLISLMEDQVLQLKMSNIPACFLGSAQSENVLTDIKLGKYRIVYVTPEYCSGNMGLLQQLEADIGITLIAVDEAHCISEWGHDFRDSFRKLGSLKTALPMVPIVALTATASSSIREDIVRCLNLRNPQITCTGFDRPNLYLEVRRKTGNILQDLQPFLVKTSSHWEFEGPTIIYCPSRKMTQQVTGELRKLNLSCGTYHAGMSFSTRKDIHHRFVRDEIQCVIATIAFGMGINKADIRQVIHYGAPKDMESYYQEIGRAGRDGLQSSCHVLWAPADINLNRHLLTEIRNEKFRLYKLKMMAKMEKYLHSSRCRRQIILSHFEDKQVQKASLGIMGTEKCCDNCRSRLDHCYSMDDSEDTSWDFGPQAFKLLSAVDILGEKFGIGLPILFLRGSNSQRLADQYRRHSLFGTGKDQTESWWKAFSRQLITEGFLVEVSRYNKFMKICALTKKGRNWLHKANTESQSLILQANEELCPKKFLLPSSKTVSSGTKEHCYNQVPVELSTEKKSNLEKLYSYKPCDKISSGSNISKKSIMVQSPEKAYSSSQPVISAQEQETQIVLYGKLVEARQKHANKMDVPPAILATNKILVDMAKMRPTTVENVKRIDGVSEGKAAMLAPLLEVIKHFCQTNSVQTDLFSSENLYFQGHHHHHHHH
Format: biochemical
Outline: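 ADP produced by WRN helicase fragment 517-1235 (L1074F, baculovirus/Sf9, untagged) read by ADP-Glo luminescence after 60 min at 25 °C with 5 μM ATP and 0.1 nM duplex DNA, following 15 min compound preincubation. Final enzyme 0.15 nM in Bicine pH 7.5 buffer, 1% DMSO; 20 μM NSC-617145 defined full inhibition.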
In the case of CC(C)(C)OC(=O)N1CC(C(=O)N(Cc2ccncc2)C2C=CS(=O)(=O)C2)c2ccc(-c3ccc(F)cc3)cc21 (centres unmarked) [I-569, tert-butyl 3-[(1,1-dioxo-2,3-dihydro-1lambda6-thiophen-3-yl)[(pyridin-4-yl)methyl]carbamoyl]-6-(4-fluorophenyl)-2,3-dihydro-1H-indole-1-carboxylate], the IC50 is reported as > 50 µM.
In the case of O=C(C1CC(c2ccccc2)C1)N(Cc1ccncc1)C1C=CS(=O)(=O)C1 (centres unmarked) [I-570, N-(1,1-dioxo-2,3-dihydro-1lambda6-thiophen-3-yl)-3-phenyl-N-[(pyridin-4-yl)methyl]cyclobutane-1-carboxamide], the IC50 is reported as > 50 µM.
O=C(CN1CCC(c2ccccc2)CC1)N(Cc1ccncc1)C1C=CS(=O)(=O)C1 (centres unmarked) [I-571, N-(1,1-dioxo-2,3-dihydro-1lambda6-thiophen-3-yl)-2-(4-phenylpiperidin-1-yl)-N-[(pyridin-4-yl)methyl]acetamide] was tested, and the IC50 was > 50 µM.
With O=C(CN1CCC(C(F)(F)F)CC1)N(Cc1ccncc1)C1C=CS(=O)(=O)C1 (centres unmarked) [I-572, N-(1,1-dioxo-2,3-dihydro-1lambda6-thiophen-3-yl)-N-[(pyridin-4-yl)methyl]-2-[4-(trifluoromethyl)piperidin-1-yl]acetamide] the IC50 was > 50 µM.
For COc1cc(CN(C(=O)Cc2ccc(-c3csc(C)n3)cc2F)C2C=CS(=O)(=O)C2)ccn1 (centres unmarked) [I-573, N-(1,1-dioxo-2,3-dihydro-1lambda6-thiophen-3-yl)-2-[2-fluoro-4-(2-methyl-1,3-thiazol-4-yl)phenyl]-N-[(2-methoxypyridin-4-yl)methyl]acetamide], the IC50 was > 50 µM.
For CNC(=O)CC(C(=O)N(Cc1ccnc(OC)c1)C1C=CS(=O)(=O)C1)c1ccc(-c2ccc(F)cc2)cc1 (centres unmarked) [I-574, N-(1,1-dioxo-2,3-dihydro-1lambda6-thiophen-3-yl)-2-{4′-fluoro-[1,1′-biphenyl]-4-yl}-N-[(2-methoxypyridin-4-yl)methyl]-N′-methylbutanediamide], the IC50 was > 50 µM.
In the case of O=C(C1CC(Cc2ccccc2)=NO1)N(Cc1ccncc1)C1C=CS(=O)(=O)C1 (centres unmarked) [I-579, 3-benzyl-N-(1,1-dioxo-2,3-dihydro-1lambda6-thiophen-3-yl)-N-[(pyridin-4-yl)methyl]-4,5-dihydro-1,2-oxazole-5-carboxamide], the IC50 is reported as > 50 µM.
In the case of O=C(Cc1nc(C2CC2)cs1)N(Cc1ccncc1)C1C=CS(=O)(=O)C1 (centres unmarked) [I-580, 2-(4-cyclopropyl-1,3-thiazol-2-yl)-N-(1,1-dioxo-2,3-dihydro-1lambda6-thiophen-3-yl)-N-[(pyridin-4-yl)methyl]acetamide], the IC50 is reported as > 50 µM.
With O=C(N(Cc1ccncc1)C1C=CS(=O)(=O)C1)C(F)(F)n1cc(-c2ccccc2)nn1 (centres unmarked) [I-581, N-(1,1-dioxo-2,3-dihydro-1lambda6-thiophen-3-yl)-2,2-difluoro-2-(4-phenyl-1H-1,2,3-triazol-1-yl)-N-[(pyridin-4-yl)methyl]acetamide] the IC50 was > 50 µM.
O=C(Cc1cnn(C2CC2)c1)N(Cc1ccncc1)C1C=CS(=O)(=O)C1 (centres unmarked) [I-582, 2-(1-cyclopropyl-1H-pyrazol-4-yl)-N-(1,1-dioxo-2,3-dihydro-1lambda6-thiophen-3-yl)-N-[(pyridin-4-yl)methyl]acetamide] was tested, and the IC50 was > 50 µM.
In the case of O=C([C@H]1[C@@H]2CCC[C@@H]21)N(Cc1ccncc1)C1C=CS(=O)(=O)C1 (stereo partly drawn) [I-583, (1R,5S,6R)-N-(1,1-dioxo-2,3-dihydro-1lambda6-thiophen-3-yl)-N-[(pyridin-4-yl)methyl]bicyclo[3.1.0]hexane-6-carboxamide], the IC50 is reported as > 50 µM.
In the case of O=C(CC1CC(c2ccccc2)C1)N(Cc1ccncc1)C1C=CS(=O)(=O)C1 (centres unmarked) [I-584, N-(1,1-dioxo-2,3-dihydro-1lambda6-thiophen-3-yl)-2-(3-phenylcyclobutyl)-N-[(pyridin-4-yl)methyl]acetamide], the IC50 is reported as > 50 µM.
For O=C1Nc2ccccc2C1CCC(=O)N(Cc1ccncc1)C1C=CS(=O)(=O)C1 (centres unmarked) [I-585, N-(1,1-dioxo-2,3-dihydro-1lambda6-thiophen-3-yl)-3-(2-oxo-2,3-dihydro-1H-indol-3-yl)-N-[(pyridin-4-yl)methyl]propanamide], the IC50 was > 50 µM.
For O=C(N(Cc1ccncc1)C1C=CS(=O)(=O)C1)C12CC(c3cccc(C(F)(F)F)c3)(C1)C2F (centres unmarked) [I-586, N-(1,1-dioxo-2,3-dihydro-1lambda6-thiophen-3-yl)-2-fluoro-N-[(pyridin-4-yl)methyl]-3-[3-(trifluoromethyl)phenyl]bicyclo[1.1.1]pentane-1-carboxamide], the IC50 was > 50 µM.
In the case of C[Si](C)(C)c1ccc(CC(=O)N(Cc2ccncc2)C2C=CS(=O)(=O)C2)cc1 (centres unmarked) [I-587, N-(1,1-dioxo-2,3-dihydro-1lambda6-thiophen-3-yl)-N-[(pyridin-4-yl)methyl]-2-[4-(trimethylsilyl)phenyl]acetamide], the IC50 is reported as 10 to 50 µM.
COc1cc(CN(C(=O)Cc2ccc(OC3CC3)cc2)C2C=CS(=O)(=O)C2)ccn1 (centres unmarked) [I-588, 2-(4-cyclopropoxyphenyl)-N-(1,1-dioxo-2,3-dihydro-1lambda6-thiophen-3-yl)-N-[(2-methoxypyridin-4-yl)methyl]acetamide] gave an IC50 of 10 to 50 µM.
O=C(Cn1cc2cc(C(F)(F)F)ccc2n1)N(Cc1ccncc1)C1C=CS(=O)(=O)C1 (centres unmarked) [I-589, N-(1,1-dioxo-2,3-dihydro-1lambda6-thiophen-3-yl)-N-[(pyridin-4-yl)methyl]-2-[5-(trifluoromethyl)-2H-indazol-2-yl]acetamide] showed an IC50 of 0.5 to 5 µM.
In the case of O=C(Cn1ncc2cc(C(F)(F)F)ccc21)N(Cc1ccncc1)C1C=CS(=O)(=O)C1 (centres unmarked) [I-590, N-(1,1-dioxo-2,3-dihydro-1lambda6-thiophen-3-yl)-N-[(pyridin-4-yl)methyl]-2-[5-(trifluoromethyl)-1H-indazol-1-yl]acetamide], the IC50 is reported as 5 to 10 µM.
COc1cc(CN(C(=O)Cc2ccc(C3CC(F)C3)cc2F)[C@@H]2C=CS(=O)(=O)C2)ccn1 (stereo partly drawn) [I-591, N-[(3R)-1,1-dioxo-2,3-dihydro-1lambda6-thiophen-3-yl]-2-[2-fluoro-4-(3-fluorocyclobutyl)phenyl]-N-[(2-methoxypyridin-4-yl)methyl]acetamide] gave an IC50 of 0.5 to 5 µM.
O=C(Cn1cc2ccc(C(F)F)cc2n1)N(Cc1ccncc1)C1C=CS(=O)(=O)C1 (centres unmarked) [I-592, 2-[6-(difluoromethyl)-2H-indazol-2-yl]-N-(1,1-dioxo-2,3-dihydro-1lambda6-thiophen-3-yl)-N-[(pyridin-4-yl)methyl]acetamide] showed an IC50 of 10 to 50 µM.
With O=C(Cn1ncc2ccc(C(F)F)cc21)N(Cc1ccncc1)C1C=CS(=O)(=O)C1 (centres unmarked) [I-593, 2-[6-(difluoromethyl)-1H-indazol-1-yl]-N-(1,1-dioxo-2,3-dihydro-1lambda6-thiophen-3-yl)-N-[(pyridin-4-yl)methyl]acetamide] the IC50 was > 50 µM.
For CN(C)C(=O)C(C(=O)N(Cc1ccnc(C(C)(C)O)c1)C1C=CS(=O)(=O)C1)n1cc(-c2ccccc2)cn1 (centres unmarked) [I-594, N′-(1,1-dioxo-2,3-dihydro-1lambda6-thiophen-3-yl)-N′-{[2-(2-hydroxypropan-2-yl)pyridin-4-yl]methyl}-N,N-dimethyl-2-(4-phenyl-1H-pyrazol-1-yl)propanediamide], the IC50 was 0.5 to 5 µM.
COc1cc(CN(C(=O)Cn2ncc(-c3ccccc3)c2C)[C@@H]2C=CS(=O)(=O)C2)ccn1 [I-595, N-[(3R)-1,1-dioxo-2,3-dihydro-1lambda6-thiophen-3-yl]-N-[(2-methoxypyridin-4-yl)methyl]-2-(5-methyl-4-phenyl-1H-pyrazol-1-yl)acetamide] was tested, and the IC50 was 0.5 to 5 µM.
With COc1cc(CN(C(=O)Cn2cc(-c3ccccc3)c(C)n2)[C@@H]2C=CS(=O)(=O)C2)ccn1 [I-596, N-[(3R)-1,1-dioxo-2,3-dihydro-1lambda6-thiophen-3-yl]-N-[(2-methoxypyridin-4-yl)methyl]-2-(3-methyl-4-phenyl-1H-pyrazol-1-yl)acetamide] the IC50 was 10 to 50 µM.
COc1cc(CN(C(=O)Cn2cnc(-c3ccc(F)cc3)c2)[C@@H]2C=CS(=O)(=O)C2)ccn1 [I-597, N-[(3R)-1,1-dioxo-2,3-dihydro-1lambda6-thiophen-3-yl]-2-[4-(4-fluorophenyl)-1H-imidazol-1-yl]-N-[(2-methoxypyridin-4-yl)methyl]acetamide] was tested, and the IC50 was > 50 µM.
In the case of COc1cc(CN(C(=O)Cn2cc(-c3ccc(F)c(F)c3)cn2)[C@@H]2C=CS(=O)(=O)C2)ccn1 [I-598, 2-[4-(3,4-difluorophenyl)-1H-pyrazol-1-yl]-N-[(3R)-1,1-dioxo-2,3-dihydro-1lambda6-thiophen-3-yl]-N-[(2-methoxypyridin-4-yl)methyl]acetamide], the IC50 is reported as < 0.5 µM.
O=C(Cn1cc(-c2ccc(F)c(F)c2)cn1)N(Cc1nc(C2CC2)cs1)C1C=CS(=O)(=O)C1 (centres unmarked) [I-599, N-[(4-cyclopropyl-1,3-thiazol-2-yl)methyl]-2-[4-(3,4-difluorophenyl)-1H-pyrazol-1-yl]-N-(1,1-dioxo-2,3-dihydro-1lambda6-thiophen-3-yl)acetamide] was tested, and the IC50 was < 0.5 µM.
Molecule COc1cc(CN(C(=O)Cc2ccc(S(F)(F)(F)(F)F)cc2)C2C=CS(=O)(=O)C2)ncn1 (centres unmarked) [I-600, N-(1,1-dioxo-2,3-dihydro-1lambda6-thiophen-3-yl)-N-[(6-methoxypyrimidin-4-yl)methyl]-2-[4-(pentafluoro-lambda6-sulfanyl)phenyl]acetamide] has an IC50 of 0.5 to 5 µM.
In the case of COc1cc(CN(C(=O)C(OCCO)c2ccc(-c3ccc(F)c(F)c3)cc2F)[C@@H]2C=CS(=O)(=O)C2)ccn1 (stereo partly drawn) [I-603, N-[(3R)-1,1-dioxo-2,3-dihydro-1lambda6-thiophen-3-yl]-2-(2-hydroxyethoxy)-N-[(2-methoxypyridin-4-yl)methyl]-2-{3,3′,4′-trifluoro-[1,1′-biphenyl]-4-yl}acetamide], the IC50 is reported as < 0.5 µM.
